We go through 36 compounds from patent publication US10329304B2, “Compounds and methods for inhibition of hedgehog signaling and phosphodiesterase” (Vanderbilt University, priority 2014, dated 2019).

The structures appear in SMILES notation.

Assay [1] concerns Hedgehog signaling (Gli-Luc reporter). The assay is described as follows: Hh Gli-Luciferase reporter assay in Shh-Light2 cells. The class given is cell-based, mouse. To be noted: for EC50: Mus musculus, Shh Light2, Table 9B, read-out: Shh Light2 Luc EC50. The procedure: For Hh signaling assays, Shh-Light2 cells stably transfected with Gli-Luciferase reporter construct were used along with Shh-conditioned media, as previously described^7. Alternatively, 3 μM purmorphamine or 20 nM Smoothened agonist (SAG) (Santa Cruz Biotechnology, Santa Cruz, Calif.) was used to induce Hh signaling. Reporter cells were seeded in 96-well plates and incubated overnight with the various concentrations of eggmanone and Shh-conditioned media. To assess the effects of overexpression of Gli-2, PDE4D3 and DN-PDE4D3 on Hh signaling, mammalian expression vectors containing these constructs were transfected into Shh-Light2 cells in 96-well plates using Fugene6 (Roche), according to manufacturer's instructions. The transfected or Shh-stimulated cells were incubated overnight with the various concentrations of compound. The cells were then lysed, and cell extracts were subjected to Steady-Glo luciferase assay (Promega) according to manufacturer's instructions. The results were normalized to cell titer, as determined using Cell Titer-Glo luminescence assay (Promega).
(In general: In a reporter assay the amount or activity of a reporter protein is the signal.)

For assay [2], the system named is zebrafish embryos. The assay is described as follows: Zebrafish embryo phenotypic assay (ZF). Type of assay: in vivo. To be noted: wild-type embryonic zebrafish, dosed 5 hpf. As to the method:
All zebrafish experiments were approved by Vanderbilt University Institutional Animal Care and Use Committee. Wild-type zebrafish of AB strain were maintained using standard protocols. Chemical screen for small molecules was performed as previously described. Briefly, pairs of zebrafish were mated, and fertilized eggs were arrayed in 96-well microtiter plates (5 embryos/well) containing 250 μl E3 water. At ˜4-hpf, small molecule library from Vanderbilt High Throughput Screening Facility was added to each well to the final concentration of 5 μM. Embryos were incubated at 28.5° C. until 24 and 48-hpf, when they were examined for gross morphologic changes indicative of disruption in embryonic patterning. A total of ˜30,000 compounds were screened.
ZF refers to wild-type embryonic zebrafish phenotypic assay involving dosing n=˜10 embryos in E3 egg water with compound from either a stock of 1 mM or 10 mM in DMSO at 5 hours post-fertilization and observing at 24, 48, and 72 hours post-fertilization.

The test system of assay [3] is Gli1 mRNA. The assay is described as follows: Hh % Inh.: SAG-induced Gli1 expression in C3H10T½ cells (qPCR). The class given is cell-based. The following applies: Mus musculus, C3H 10T1/2, SAG-induced (100 nM), 24 hours; for inhibition at 1 µM: 1 pM [sic], read-out: C3H10T1/2 qPCR, Gh1 mRNA % Inh., 1 pM; for inhibition at 10 µM: 10 pM [sic], read-out: C3H10T1/2 qPCR, Gh1 mRNA % Inh., 10 pM. The procedure: Compounds are dosed from 10 mM DMSO stock solutions, and mRNA is isolated after 24 hours of compound treatment. mRNA is reverse transcribed to produce cDNA which is quantified by quantitative polymerase chain reaction (qPCR) in triplicate and levels are normalized to GAPDH levels. Data is presented as percent inhibition compared to positive control (SAG).
(Real-time PCR tracks product formation cycle by cycle.)

Assay [4] concerns Hedgehog signaling (TM3-Gli-Luc). The assay is described as follows: TM3-Gli-Luc luciferase reporter assay stimulated with 20 nM SAG. The class given is cell-based. To be noted: Table 9A; read-out: TM3 G8 Luciferase EC 50. The procedure: TM3-Gli-Luc cells were maintained on sterile 0.1% gelatin (from porcine skin, Type A, prepared in MilliQ water, autoclaved, then sterile-filtered) in 1:1 Dulbecco's Modified Eagle Medium (DMEM)/F12 supplemented with 5% horse serum, 2.5% fetal bovine serum (FBS), and 15 mM HEPES, hereafter referred to as TM3 Culture Medium. For small molecule evaluation, TM3-Gli-Luc cells were assayed on 0.1% gelatin in DMEM/F12 supplemented with 2.5% FBS and 15 mM HEPES, hereafter referred to as TM3Luc Medium. Sufu^−/− cells were maintained in DMEM supplemented with 4.5 g/L D-glucose, L-glutamine, 25 mM HEPES, and 10% FBS, hereafter referred to as D10 FBS. For small molecule evaluation, Sufu^−/− cells were assayed in DMEM supplemented with 4.5 g/L D-glucose, L-glutamine, 25 mM HEPES, and 0.5% FBS, hereafter referred to as D0.5 FBS. All cells were cultured at 37° C. with a 5% CO2 atmosphere.
On the day of cell plating, 96-well plates were coated with 50 μL/well of sterile 0.1% gelatin for 5 minutes then aspirated and replaced with 50 μL/well of TM3 Culture Medium. TM3-Gli-Luc cells were seeded at a density of 5,000 cells/well in TM3 Culture Medium and incubated for 24 hours. A master mix of 20 nM SAG in TM3Luc Medium was prepared, and small molecule solutions were prepared by adding the desired amount of compound from 10 mM DMSO stock to TM3Luc Medium containing 20 nM SAG. Negative control was prepared by adding an equi-volume amount of DMSO as compared to small molecule treated conditions to TM3Luc Medium not containing SAG. Cell plating medium was aspirated and replaced with 100 μL/well of prepared small molecule-containing media, and plates were incubated for 48 hours before proceeding to luciferase activity and cell viability reading.
TM3Luc Medium from compound treated plates was aspirated and replaced with 82 μL/well of Glo Lysis Buffer (Promega, Madison, Wis., USA), and plates were shaken at 300 rpm and room temperature for 12 minutes. Lysate was split between two white 96-well plates, 45 μL/well and 25 μL/well for luciferase reading and cell viability respectively. For luciferase activity monitoring, 45 μL/well of Steady Glo (Promega, Madison, Wis., USA) was added to 45 μL/well of cell lysate, incubated at room temperature for 5 minutes, then luminescence was measured on a Turner Biosystems Modulus Microplate Reader (Sunnyvale, Calif., USA) with an integration time of 0.5 seconds. For cell viability measurement, 25 μL/well of Cell Titer Glo (Promega, Madison, Wis., USA) (prepared by 1:10 dilution with Glo Lysis Buffer) was added to 25 μL/well of cell lysate, incubated at room temperature for 5 minutes, then luminescence was measured as above.
Luciferase activity data (Steady Glo) was divided by corresponding cell viability data (Cell Titer Glo) to arrive at a live cell number-normalized luciferase activity reading. The average of negative control data (DMSO treated) was subtracted from all wells, and percent activity was calculated by dividing all wells by the positive control (SAG treated) average. […] At least two independent assays tested on separate days were averaged to provide EC50±standard error of the mean.

As for `C=CCn1c(SCC(=O)c2ccc(-c3ccccc3)cc2)nc2sc3c(c2c1=O)CCCC3` [Formula (20)], the “Hh Inhibition Assay (EC50, μM)” value in assay [1] (Table 8) was “Inactive”.
Consider `C=C(C)Cn1c(SC)nc2sc3c(c2c1=O)CCCC3` [HI272], for which, in assay [1], the EC50 was > 10 µM.
Same read-out and setting: in the case of `CCn1c(SCC(=O)c2ccccc2)nc2sc3c(c2c1=O)CCC3` [HI598] it was > 10 µM; in that of `C=CCn1c(SCC(=O)c2ccc(C)cc2)nc2sc3c(c2c1=O)CCCC3` [HI612], > 10 µM.
Same read-out and setting: in the case of `C=CCn1c(SCC(=O)c2ccc(F)cc2)nc2sc3c(c2c1=O)CCCC3` [HI682] it was > 10 µM.
The same measure, in the same setting: in the case of `CCn1c(SCC(=O)c2ccccc2)nc2sc(C)c(C)c2c1=O` [HI864] it was > 10 µM; in that of `C=CCn1c(SCC(=O)O)nc2sc3c(c2c1=O)CCCC3` [HI918], > 10 µM; in that of `CCn1c(SCC(=O)c2ccc(Br)cc2)nc2sc3c(c2c1=O)CCC3` [HI2863], > 10 µM.
On to `C=C(C)Cn1c(SCC(=O)c2cccs2)nc2sccc2c1=O` [JEH-1-054], for which, in assay [2], the “ZF Phenotype EC100” value was >50 µM. Moreover, in assay [3], the inhibition at 1 µM was 19.6% and the inhibition at 10 µM was determined as 50.4%. Besides, the EC50 in assay [4] was found to be 1.1 µM.
Turning to `C=C(C)Cn1c(SCC(=O)c2cccs2)nc2sc3c(c2c1=O)CCNC3` [JEH-1-064], in assay [2], the “ZF Phenotype EC100” value is >50 µM. Also, in assay [3], the inhibition at 10 µM worked out at 64.1%. The EC50 in assay [4] stood at 7.06 µM.
In the case of `O=C(CSc1nc2sccc2c(=O)n1C1CC1)c1cccs1` [JEH-1-065-2], the “ZF Phenotype EC100” value in assay [2] was found to be 10 µM. For the same compound, the EC50 in assay [4] amounted to 1.09 µM.
For `O=C(CSc1nc2ccccc2c(=O)n1C1CC1)c1cccs1` [JEH-1-134] the same measures were 1 µM and 0.713 µM.
For `O=C(CSc1nc2ncccc2c(=O)n1C1CC1)c1cccs1` [JEH-1-137] the same measures were >50 µM and 3.32 µM.
For the compound `C=C(C)Cn1c(SCC(=O)c2cccs2)nc2ccccc2c1=O` [JEH-1-146-1], the “ZF Phenotype EC100” value in assay [2] was determined as 10 µM. Moreover, the inhibition at 10 µM in assay [3] came to 68.9%. Moreover, the EC50 in assay [4] was > 50 µM.
For `C=C(C)Cn1c(SCC(=O)c2cccs2)nc2ncccc2c1=O` [JEH-1-146-2], the “ZF Phenotype EC100” value in assay [2] is >50 µM. Also, the inhibition at 10 µM in assay [3] is 28.7%. Besides, in assay [4], the EC50 is 11.2 µM.
On to `O=C(CSc1nc2sc3c(c2c(=O)n1C1CC1)CCOC3)c1cccs1` [JEH-1-161-1], for which the “ZF Phenotype EC100” value in assay [2] worked out at 0.5 µM. For the same compound, in assay [4], the EC50 was found to be 19.1 µM.
As for `O=C(CSc1nc2sc3c(c2c(=O)n1C1CC1)CCSC3)c1cccs1` [JEH-1-161-2], the “ZF Phenotype EC100” value in assay [2] worked out at 1 µM. Besides, in assay [4], the EC50 was 9.55 µM.
Take `O=C(CSc1nc2sc3c(c2c(=O)n1C1CC1)CCCC3)c1ccncc1` [JEH-1-163-2]: the “ZF Phenotype EC100” value in assay [2] was >50 µM. The EC50 in assay [4] was 3.79 µM.
Turning to `Cc1ccc(CSc2nc3sccc3c(=O)n2C2CC2)cc1` [JEH-1-190-3], the “ZF Phenotype EC100” value in assay [2] was >50 µM. The EC50 in assay [4] amounted to 5.01 µM.
For `O=C(CSc1nc2sccc2c(=O)n1CC1CC1)c1cccnc1` [JEH-2-022-2] the same measures were 25 µM and 3.16 µM.
For `O=C(CSc1nc2ccsc2c(=O)n1C1CC1)c1cccs1` [JEH-2-069-2], in that order: 48 µM and 1.11 µM.
Regarding `C=C(C)Cn1c(SCC(=O)c2cccs2)nc2cnccc2c1=O` [JEH-2-088], in assay [3], the inhibition at 10 µM was found to be 24.2%. In assay [4], the EC50 is 14.1 µM.
For `C=C(C)Cn1c(SCC(=O)c2cccs2)nc2sc3c(c2c1=O)CCN(C(=O)c1ccco1)C3` [JEH-2-105], the inhibition at 10 µM in assay [3] turned out to be 54.9%.
For the compound `C=C(C)Cn1c(SCC(=O)c2cccs2)nc2sc3c(c2c1=O)CCOC3` [JEH-2-120-1], the inhibition at 10 µM in assay [3] came out at 82.9%. In addition, the EC50 in assay [4] is 30.2 µM.
`CC(C)n1c(SCC(=O)c2cccs2)nc2sc3c(c2c1=O)CCCC3` [JEH-3-031]: in assay [3], the inhibition at 1 µM was found to be 11.7% and the inhibition at 10 µM came out at 101%.
For `CC(C)Cn1c(SCC(=O)c2cccs2)nc2sc3c(c2c1=O)CCCC3` [JEH-3-038-2], in that order: 27.8% and 102%.
Take `CC(C)(O)Cn1c(SCC(=O)c2cccs2)nc2sc3c(c2c1=O)CCCC3` [JEH-3-038-3]: in assay [3], the inhibition at 1 µM is 24.4% and the inhibition at 10 µM came out at 14.8%.
In the case of `C=C(C)Cn1c(SCC(=O)c2cccnc2)nc2sc3c(c2c1=O)CCCC3` [JEH-3-045-3], the inhibition at 10 µM in assay [3] came to 43.6%. In addition, the EC50 in assay [4] worked out at 10.5 µM.
Take `O=C(CSc1nc2sc3c(c2c(=O)n1CC1CCC1)CCCC3)c1cccs1` [JEH-3-056-1]: the “ZF Phenotype EC100” value in assay [2] was found to be 1 µM. In assay [3], the inhibition at 1 µM was 14.7% and the inhibition at 10 µM was 67.2%. Besides, the EC50 in assay [4] was determined as 7.08 µM.
Turning to `CC(C)(C)Cn1c(SCC(=O)c2cccs2)nc2sc3c(c2c1=O)CCCC3` [JEH-3-056-2], in assay [3], the inhibition at 1 µM stood at 13.1% and the inhibition at 10 µM amounted to 84.8%.
With `O=C(CSc1nc2sc3c(c2c(=O)n1Cc1ccccc1)CCCC3)c1cccs1` [JEH-3-058-2], in assay [3], the inhibition at 10 µM is 18.3%.
As to `C=C(C)Cn1c(SCC(=O)N2CCCC(C)C2)nc2sc3c(c2c1=O)CCCC3` (stereo not shown) [JEH-3-120-1], in assay [3], the inhibition at 1 µM amounted to 28.7% and the inhibition at 10 µM was 106%.
For `C=C(C)Cn1c(SC)nc2sc3c(c2c1=O)CCCC3` [JEH-3-146], in assay [3], the inhibition at 1 µM came out at 48.4% and the inhibition at 10 µM is 83.9%. In addition, the EC50 in assay [4] worked out at 23.9 µM.
Regarding `O=C(CSc1nc2sc3c(c2c(=O)n1C1CC1)CCNC3)c1ccccc1` [KYK-1-57], the “ZF Phenotype EC100” value in assay [2] is >50 µM. Moreover, the EC50 in assay [4] is 8.55 µM.
For `CN1CCc2c(sc3nc(SCC(=O)c4ccccc4)n(C4CC4)c(=O)c23)C1` [KYK-1-76], in that order: >50 µM and 5.13 µM.
Turning to `CCCN1CCc2c(sc3nc(SCC(=O)c4ccccc4)n(C4CC4)c(=O)c23)C1` [KYK-1-100], in assay [2], the “ZF Phenotype EC100” value was >50 µM. Also, in assay [4], the EC50 amounted to 4.67 µM.
